Common to all, as to type: in vivo
Experiment [1] concerns db/db mice. As to the kind of experiment: Blood glucose in mouse type II diabetes model (limonoid compound, saxagliptin or combination). The note with it: single administration 0.04 g/kg per day by gavage, two weeks, 1 h after the last administration, mean ± SD. An excerpt:
(§1) In the present example, db/db mice (line name BKS.Cg-Dock7^m+/+Lepr^db/Nju) were used to perform hypoglycemic efficacy evaluation test of animals (blood glucose level and leptin). The limonoid compound was selected from obacunone, isoobacunoic acid and obacunone glycoside, and saxagliptin single administration group, obacunone single administration group, isoobacunoic acid single administration group, obacunone glycoside single administered group, and respective combination thereof with saxagliptin administration groups were set.
(§2) Conditions for experimental feeding: as type II diabetes model mice, 6-week-old SPF-grade db/db mice were purchased from the Nanjing Model Biology Institute, and subjected to experimental feeding after 7 days of preliminary feeding. It should be noted that the conditions for raising the mice were as follows: the temperature was 23±1° C., the humidity was 55±10%, the lights were turned on between 7 am and 7 pm (the lights were turned off at other time), and the mice were allowed to freely take in water and feed. The experimental feed was mouse growth-stable feed (GB M2118), and the daily feeding and management of the animals were under the responsibility of the animal security department, which provided the animals with sufficient diet and fresh drinking water daily.
Experimental grouping: male db/db mice (20±2 g) were selected, and 18 male mice in each group were tested. The experimental groups included normal control group (db/m, n=18), model group (db/db, n=18), obacunone group (db/db, n=18), isoobacunoic acid group (db/db, n=18), obacunone glycoside group (db/db, n=18), saxagliptin group (db/db, n=18), obacunone/saxagliptin combination group (db/db, n=18), isoobacunoic acid/saxagliptin combination group (db/db, n=18), obacunone glycoside/saxagliptin combination group (db/db, n=18). […]

Experiment [2] concerns db/db mice. As to the kind of experiment: Blood glucose in mouse type II diabetes model (limonoid compound, linagliptin or combination). The note with it: single administration 0.2 g/kg per day by gavage, two weeks, 1 h after the last administration, mean ± SD.
From the text: (§3) In the present embodiment, the limonoid compound was selected from nomilin, deacetylnomilin, nomilin acid, deacetylnomilin acid glycoside, and linagliptin single administration group, nomilin single administration group, deacetylnomilin single administration group, nomilin acid single administered group, deacetylnomilin acid glycoside single administration group, and respective combination thereof with linagliptin administration groups were set.
as §2
(§4) Experimental grouping: male db/db mice (20±2 g) were selected, 18 male mice in each group were tested, and drinking bottles were sterilized weekly. […]

Experiment [3] concerns db/db mice. As to the kind of experiment: Serum insulin (Elisa) in mouse type II diabetes model (limonoid compound, linagliptin or combination). As to conditions: single administration 0.2 g/kg per day by gavage, two weeks, mean ± SD.
From the text: as §3, §2, §4

For experiment [4], the system named is db/db mice. The experiment in a line: Serum leptin (Elisa) in mouse type II diabetes model (limonoid compound, saxagliptin or combination). As to conditions: single administration 0.04 g/kg per day by gavage, two weeks, mean ± SD.
From the text: as §1
as §2, with “daily. […]” for “daily.”

The subject of experiment [5] is mouse pancreatic islet β-cell injury model (ICR mice modeled with streptozotocin). The experiment in a line: Blood glucose in mouse pancreatic islet β-cell injury model (limonoid compound, sitagliptin or combination). As to conditions: STZ mice, single administration 0.02 g/kg per day by gavage, two weeks, 1 h after the last administration, mean ± SD. An excerpt:
In this example, a mouse pancreatic islet β-cell injury model was established by modeling ICR mice with streptozotocin (STZ) (Li Nan et al., Protective effect of pine pollen on kidney damage in diabetic nephropathy mice, Science and Technology Review, 2014, 32 (4/5): 95-99), and used to complete the evaluation of hypoglycemic effect in animals (this model could simulate pancreatic islet β-cell damage state of type I and type II diabetics). The limonoid compound was selected from the group consisting of limonin, isolimonic acid, limonin glycoside, and isolimonic acid glycoside, and sitagliptin single administration group, limonin single administration group, isolimonic acid single administration group, limonin glycoside singe administration group, isolimonic acid glycoside singe administration group, and respective combination thereof with sitagliptin administration groups were set. Conditions of experimental feeding: ICR mice (20±2 g), aged 6 weeks, purchased from Zhejiang Academy of Medical Sciences, and subjected to experimental feeding after 7 days of preliminary feeding. […] The data were expressed as mean and standard deviation. The data before and after were analyzed by t-test, and P<0.05 was considered statistically significant.

For experiment [6] the test system is unchanged. The experiment in a line: Blood glucose in mouse pancreatic islet β-cell injury model (limonoid compound, vildagliptin or combination). The note with it: STZ mice, single administration 0.1 g/kg per day by gavage, two weeks, 1 h after the last administration, mean ± SD. How it is done:
It should be noted that the conditions for raising the mice were as follows: the temperature was 23±1° C., the humidity was 55±10%, the lights were turned on between 7 am and 7 pm (the lights were turned off at other time), and the mice were allowed to freely take in water and feed. The experimental feed was mouse growth-stable feed (GB M2118), and the daily feeding and management of the animals were under the responsibility of the animal security department, which provided the animals with sufficient diet and fresh drinking water daily.
SPSS 16.0 software was used for statistical analysis. The data were expressed as mean and standard deviation. The data before and after were analyzed by t-test, and P<0.05 was considered statistically significant.

Take `CC1(C)O[C@@H](CC(=O)O)[C@]2(C)[C@H]3CC[C@@]4(C)[C@H](c5ccoc5)OC(=O)[C@H]5O[C@]54[C@]3(C)C(=O)C[C@@H]12` [Isoobacunoic acid, isoobacunoic acid]: the Blood glucose value in experiment [1] stood at 14.6 ± 3.1 mmol/L.
Take `CC#CCn1c(N2CCC[C@@H](N)C2)nc2c1c(=O)n(Cc1nc(C)c3ccccc3n1)c(=O)n2C` [Linagliptin, linagliptin]: the Blood glucose value in experiment [2] amounted to 11.9 ± 2.1 mmol/L. Besides, in experiment [3], the Insulin came to 8.00 ± 1.94 pg/mL.
In the case of `CC1(C)OC(=O)C=C[C@]2(C)[C@H]3CC[C@@](C)([C@@H](O[C@@H]4O[C@H](CO)[C@@H](O)[C@H](O)[C@H]4O)c4ccoc4)[C@@]4(O[C@@H]4C(=O)O)[C@]3(C)C(=O)C[C@@H]12` [Obacunone glycoside, obacunone glycoside], the Blood glucose value in experiment [1] stood at 13.6 ± 2.9 mmol/L.
Regarding `N#C[C@@H]1C[C@@H]2C[C@@H]2N1C(=O)[C@@H](N)C12CC3CC(CC(O)(C3)C1)C2` [Saxagliptin, saxagliptin], in experiment [4], the Leptin turned out to be 32.52 ± 5.11 pg/mL. In addition, the Blood glucose value in experiment [1] is recorded as 13.9 ± 3.5 mmol/L.
Turning to `N[C@@H](CC(=O)N1CCn2c(nnc2C(F)(F)F)C1)Cc1cc(F)c(F)cc1F` [Sitagliptin, sitagliptin], the Blood glucose value in experiment [5] was determined as 21.7 ± 4.9 mmol/L.
For the compound `N#C[C@@H]1CCCN1C(=O)CNC12CC3CC(CC(O)(C3)C1)C2` [Vildagliptin, vildagliptin], the Blood glucose value in experiment [6] was 16.9 ± 2.6 mmol/L.

The record behind these values is US20220226283A1, “COMBINATION PRODUCT CONTAINING LIMONOID COMPOUND AND DPP-4 INHIBITOR” (ZHEJIANG YANGSHENGTANG INSTITUTE OF NATURAL MEDICATION CO., …, priority 2019, published 2022).
